Laboratory results from paper PMC11123841, “Discovery and Synthesis of Hydroxy-L-Proline Blockers of the Neutral Amino Acid Transporters SLC1A4 (ASCT1) and SLC1A5 (ASCT2)” (Molecules, 2024).

Assays:
Type in all cases: cell-based
[1] = biological target: T1, SLC1A4 (Homo sapiens, UniProt P43007); experiment: [3H]L-alanine heteroexchange (trans-stimulation) in preloaded oocytes; conditions: 3 µM BPOHP, 1 mM L-alanine
T1 construct: expressed in transfected cells; host or cells: Xenopus laevis oocytes (cRNA injection)
T1 sequence (P43007 1-532): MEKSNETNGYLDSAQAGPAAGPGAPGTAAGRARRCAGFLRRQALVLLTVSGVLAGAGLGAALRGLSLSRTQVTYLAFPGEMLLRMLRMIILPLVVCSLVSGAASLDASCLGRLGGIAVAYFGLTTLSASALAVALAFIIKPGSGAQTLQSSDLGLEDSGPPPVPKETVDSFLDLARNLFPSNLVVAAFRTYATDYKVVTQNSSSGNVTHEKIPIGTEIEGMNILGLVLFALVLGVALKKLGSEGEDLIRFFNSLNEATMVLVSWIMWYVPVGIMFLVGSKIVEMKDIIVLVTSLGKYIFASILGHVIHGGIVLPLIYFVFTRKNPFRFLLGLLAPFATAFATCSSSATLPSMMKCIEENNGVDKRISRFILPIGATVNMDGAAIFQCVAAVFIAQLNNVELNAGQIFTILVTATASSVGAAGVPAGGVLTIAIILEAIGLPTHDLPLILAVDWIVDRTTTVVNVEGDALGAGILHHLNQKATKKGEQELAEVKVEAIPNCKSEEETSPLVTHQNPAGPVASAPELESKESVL
Experimental: (§1) Uptake was halted by washing 3 times with 4 °C ND96 buffer. Oocytes were then lysed in 0.1% Triton X-100, and radioactivity was counted via liquid scintillation. Dose response curves were generated by fitting fractional inhibition (I) to the expression I = Imax × [inhibitor]/([inhibitor] + IC50).

[2] = biological target: T2, SLC1A5 (Mus musculus, UniProt P51912); experiment: as above; conditions: 3 µM BPOHP, 1 mM L-alanine
T2 construct: expressed in transfected cells; host or cells: Xenopus laevis oocytes (cRNA injection)
T2 sequence (P51912 1-553): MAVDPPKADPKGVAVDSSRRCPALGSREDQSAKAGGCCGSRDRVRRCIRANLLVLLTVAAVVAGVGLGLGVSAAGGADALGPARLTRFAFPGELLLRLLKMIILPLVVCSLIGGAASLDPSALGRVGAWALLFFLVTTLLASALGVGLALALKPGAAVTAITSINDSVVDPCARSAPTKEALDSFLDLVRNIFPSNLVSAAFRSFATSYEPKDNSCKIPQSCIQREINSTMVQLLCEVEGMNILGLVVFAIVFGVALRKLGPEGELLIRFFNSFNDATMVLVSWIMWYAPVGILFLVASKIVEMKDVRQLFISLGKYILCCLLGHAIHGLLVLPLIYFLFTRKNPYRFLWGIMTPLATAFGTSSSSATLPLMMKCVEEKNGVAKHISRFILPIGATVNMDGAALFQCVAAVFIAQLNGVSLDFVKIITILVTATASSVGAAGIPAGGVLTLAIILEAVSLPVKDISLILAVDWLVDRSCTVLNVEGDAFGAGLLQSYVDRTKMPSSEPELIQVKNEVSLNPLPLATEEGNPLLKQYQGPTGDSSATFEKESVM
Experimental: as §1

[3] = biological target: T3, SLC3A2 (4f2) injected alone (Homo sapiens, UniProt P08195); experiment: [3H]D-serine uptake in oocytes; conditions: 10 µM BPOHP
T3 construct: expressed in transfected cells; host or cells: Xenopus laevis oocytes (cRNA injection)
T3 sequence (P08195 1-529): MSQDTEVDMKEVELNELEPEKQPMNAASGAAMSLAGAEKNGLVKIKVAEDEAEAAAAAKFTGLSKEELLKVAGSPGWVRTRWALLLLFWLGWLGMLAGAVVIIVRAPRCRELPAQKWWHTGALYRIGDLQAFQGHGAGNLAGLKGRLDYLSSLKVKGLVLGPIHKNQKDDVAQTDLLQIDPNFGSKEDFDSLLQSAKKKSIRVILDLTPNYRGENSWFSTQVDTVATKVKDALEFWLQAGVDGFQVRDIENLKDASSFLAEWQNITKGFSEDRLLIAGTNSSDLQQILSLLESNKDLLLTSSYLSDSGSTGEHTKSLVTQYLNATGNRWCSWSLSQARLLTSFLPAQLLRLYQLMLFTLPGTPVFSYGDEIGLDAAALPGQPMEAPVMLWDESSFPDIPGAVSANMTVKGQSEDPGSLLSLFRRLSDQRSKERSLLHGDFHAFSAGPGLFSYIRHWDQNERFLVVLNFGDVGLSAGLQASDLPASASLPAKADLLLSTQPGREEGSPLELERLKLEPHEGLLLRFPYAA
Experimental: Figure SM-3A. Representative traces showing 100µM L-Ala currents and co-application of 3µM BPOHP (black bar) with no effect on SLC38A neutral amino acid transporters SLC38A1(ATA1), SLC38A2 (ATA2), and SLC38A4 (ATA3). SM-3B. [3H]D-serine uptake (100nM) in SLC1A4 is blocked by BPOHP (10µM), however, [ 3H]D-serine uptake by co -expressed SLC7A10+SLC3A2 (asc1+4F2) nor SLC3A2 (4f2) expressed (injected) alone was blocked by application of 10µM BPOHP.
Figure SM-4. Tosic acid approach to compound 12c. (i) Tosylic acid 0.1M in THF 60◦C. (ii) Phenol and NaH in DCM, 40◦C under argon balloon (iii) 10% Pd/C (10% w/eq.), H2, MeOH, H2O, […]
S.Figure 3 A. Representative traces showing 100uM L-Ala currents and co-application of 3uM BPOHP (black bar) with no effect on SLC38A neutral amino acid transporters SLC38A1(ATA1), SLC38A2 (ATA2), and SLC38A4 (ATA3). B. [3H]D-serine uptake (100nM) in SLC1A4 is blocked by BPOHP (10uM), but not the H3D-serine uptake by […]

## O=C(O)[C@H]1NC[C@@H](OCc2ccc(-c3ccccc3)cc2)[C@@H]1O [14e]
[1]
  [3H]L-alanine exchange: No exchange was detected
[2]
  [3H]L-alanine exchange: No exchange was detected
[3]
  effect on [3H]D-serine uptake: no effect
